The values that follow come from patent US12234463B2, “Engineered microorganisms with G3P → 3PG enzyme and/or fructose-1,6-bisphosphatase including those having synthetic or enhanced methylotrophy” (Genomatica, Inc., priority 2018, dated 2025).

Read-outs that look alike come from different tables or passages of the source.

Experiment [1] concerns E. coli transketolase A (TktA). The settings on record: ref. [3], cited from earlier work.
Experiment [2] has as its system E. coli fructose-6-phosphate aldolase (F6P aldolase, fsa) variant A129S. The settings on record: cited from earlier work.
The target of experiment [3] is T1, Bacillus methanolicus MGA3 GapN (NADP-dependent glyceraldehyde-3-phosphate dehydrogenase), cds 10663A (Bacillus methanolicus, UniProt I3EBG2).
T1 sequence (I3EBG2 1-481): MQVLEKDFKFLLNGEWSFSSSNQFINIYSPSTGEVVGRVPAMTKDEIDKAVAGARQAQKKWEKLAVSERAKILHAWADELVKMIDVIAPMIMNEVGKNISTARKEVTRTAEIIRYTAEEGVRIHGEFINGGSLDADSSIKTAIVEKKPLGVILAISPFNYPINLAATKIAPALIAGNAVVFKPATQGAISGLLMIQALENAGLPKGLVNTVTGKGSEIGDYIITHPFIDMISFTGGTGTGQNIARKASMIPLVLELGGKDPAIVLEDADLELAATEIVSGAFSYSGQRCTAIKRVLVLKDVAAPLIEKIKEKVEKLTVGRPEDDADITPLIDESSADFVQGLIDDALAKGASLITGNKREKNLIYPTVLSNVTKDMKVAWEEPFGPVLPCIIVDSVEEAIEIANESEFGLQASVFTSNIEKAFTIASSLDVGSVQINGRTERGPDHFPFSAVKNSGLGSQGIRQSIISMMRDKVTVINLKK
The experiment can be described thus: GapN vs. GapA kinetic comparison: catalytic constants of BM MGA3 GapN (cds 10663A, Table 18). It counts as biochemical. The settings on record: fixed NADP; G3P varied.

Experiment [4] concerns the target T2, Bacillus methanolicus PB1 GapN (NADP-dependent glyceraldehyde-3-phosphate dehydrogenase), cds 10662A (Bacillus methanolicus, UniProt I3E1I1).
T2 sequence (I3E1I1 1-481): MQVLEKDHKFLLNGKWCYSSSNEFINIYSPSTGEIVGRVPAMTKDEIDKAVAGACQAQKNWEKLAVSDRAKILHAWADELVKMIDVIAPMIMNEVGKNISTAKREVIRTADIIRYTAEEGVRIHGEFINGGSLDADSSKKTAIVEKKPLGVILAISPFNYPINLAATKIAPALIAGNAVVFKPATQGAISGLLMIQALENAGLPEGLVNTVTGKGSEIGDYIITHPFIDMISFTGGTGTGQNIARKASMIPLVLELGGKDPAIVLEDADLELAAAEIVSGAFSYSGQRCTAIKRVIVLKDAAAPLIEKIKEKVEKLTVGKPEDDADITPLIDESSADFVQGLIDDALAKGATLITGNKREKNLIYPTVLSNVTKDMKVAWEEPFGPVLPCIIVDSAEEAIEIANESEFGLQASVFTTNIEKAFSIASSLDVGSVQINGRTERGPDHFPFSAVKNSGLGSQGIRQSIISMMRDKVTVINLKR
Nature of the experiment: GapN vs. GapA kinetic comparison: catalytic constants of BM PB1 GapN (cds 10662A, Table 18). It counts as biochemical. Particulars: fixed NADP; G3P varied.

Experiment [5] has as its system E. coli fructose-6-phosphate aldolase (F6P aldolase, fsa), wild type. Particulars: cited from earlier work; for Km: purified enzyme.
The subject of experiment [6] is B. methanolicus transketolase. Particulars: ref. [2] Markert et al., cited from earlier work.
Experiment [7] concerns dihydroxyacetone synthase from Mycobacter sp. strain JC1 DSM 3803. The settings on record: cited from earlier work.
Experiment [8] deals with E. coli ribose 5-phosphate isomerase A (RpiA). Particulars: read-out: Michaelis constant for ribose 5-phosphate; cited from earlier work.
The test system of experiment [9] is E. coli ribose 5-phosphate isomerase B (RpiB). Particulars: read-out: Michaelis constant for ribose 5-phosphate; cited from earlier work.
Where [10] appears, read: reaction substrates, read-out: KM (substrates).
Where [11] appears, read: fold reduction compared to wild type enzyme.
The mark [12] stands for this setting: reaction products, read-out: KM (products).

On to `O=C(CO)[C@@H](O)[C@H](O)[C@H](O)[C@H](O)COP(=O)(O)O` [sedoheptulose 7-phosphate], for which the Km in experiment [1] (setting [10]) is 4000 µM.
For the compound `O=CCO` [glycoaldehyde], in [2] (setting [11]), the “reduced affinity for glycoaldehyde” value is listed as “more than 3 fold”.
Turning to `O=C[C@H](O)COP(=O)(O)O` [glyceraldehyde 3-phosphate], the Km in experiment [1] (setting [10]) is 2100 µM; in [3], 1600 ± 100 µM; in [4], 1100 ± 300 µM; in [5], 800 µM; in experiment [6] (setting [10]), 920 µM. Moreover, the “kcat (G3P)” value in [3] amounted to 9.5 ± 0.8 S^−1; in experiment [4], 8.9 ± 0.8 S^−1.
Consider `O=C(CO)[C@@H](O)[C@H](O)COP(=O)(O)O` [xylulose 5-phosphate], for which the Km in [1] (setting [12]) is 160 µM; in experiment [7] (read-out: Km for xylulose 5-phosphate) it was 33.3 µM; in [6] (setting [12]), 150 µM.
As to `O=C[C@H](O)[C@H](O)COP(=O)(O)O`, in experiment [1] (setting [12]), the Km is 90 µM.
For `O=C(CO)CO` [dihydroxyacetone], the Km in [5] is 35000 µM. For the same compound, the “improved reactivity towards DHA in terms of Kcat/Km” value in experiment [2] (fold improvement) is given as “over 17 fold”.
For `O=P(O)(O)OC[C@H]1OC(O)[C@H](O)[C@@H]1O` (stereo partly shown) [ribose 5-phosphate], the Km in experiment [1] (setting [12]) is 1400 µM; in experiment [8], 4400 µM; in [9], 830 µM; in [6] (setting [12]), 120 µM.
For `O=P(O)(O)OC[C@H]1OC(O)(CO)[C@@H](O)[C@@H]1O` (stereo partly shown) [fructose 6-phosphate], the Km is 1100 µM in experiment [1] (setting [10]), 9000 µM in experiment [5] and 720 µM in experiment [6] (setting [10]). The “Vmax for fructose 6-phosphate cleavage” value in experiment [5] (30 degrees C., pH 8.5, 50 mm glycylglycine buffer) is 7 units/mg of protein.
Consider `C=O` [formaldehyde], for which the Km in experiment [7] (read-out: Km for formaldehyde) is 1860 µM.
For the compound `CC(=O)CO` [hydroxyacetone], the “reduced catalytic efficiency on hydroxyacetone” value in [2] (setting [11]) is on record as “more than 3 fold”.
